Measurements taken from patent US10029992B2, “Diaminotriazine compounds and their use as herbicides” (BASF SE, priority 2014, dated 2018).

Assays:
ABUTH [1] = test: Greenhouse experiment, pre-emergence treatment; assay type: in vivo, Abutilon theophrasti; conditions: pre-emergence method
Source text: (§1) The culture containers used were plastic flowerpots containing loamy sand with approximately 3.0% of humus as the substrate. The seeds of the test plants were sown separately for each species.
(§2) For the pre-emergence treatment, the active ingredients, which had been suspended or emulsified in water, were applied directly after sowing by means of finely distributing nozzles. The containers were irrigated gently to promote germination and growth and subsequently covered with transparent plastic hoods until the plants had rooted. This cover caused uniform germination of the test plants, unless this had been impaired by the active ingredients.
(§3) Depending on the species, the plants were kept at 10-25° C. or 20-35° C., respectively.
(§4) The test period extended over 2 to 4 weeks. During this time, the plants were tended, and their response to the individual treatments was evaluated.
(§5) Evaluation was carried out using a scale from 0 to 100. 100 means no emergence of the plants, or complete destruction of at least the aerial moieties, and 0 means no damage, or normal course of growth. A moderate herbicidal activity is given at values of at least 60, a good herbicidal activity is given at values of at least 70, and a very good herbicidal activity is given at values of at least 85.
(§6) The plants used in the greenhouse experiments were of the following species: […]

ECHCG = test: Greenhouse experiment, pre-emergence treatment; assay type: in vivo, Echinochloa crus-galli; conditions: pre-emergence method
Source text: as §1, §2, §3, §4, §5, §6

SETFA [2] = test: Greenhouse experiment, pre-emergence treatment; assay type: in vivo, Setaria faberi; conditions: pre-emergence method
Source text: (§7) The seeds of the test plants were sown separately for each species. For the pre-emergence treatment, the active ingredients, which had been suspended or emulsified in water, were applied directly after sowing by means of finely distributing nozzles. The containers were irrigated gently to promote germination and growth and subsequently covered with transparent plastic hoods until the plants had rooted. This cover caused uniform germination of the test plants, unless this had been impaired by the active ingredients. Depending on the species, the plants were kept at 10-25° C. or 20-35° C., respectively. The test period extended over 2 to 4 weeks. During this time, the plants were tended, and their response to the individual treatments was evaluated. Evaluation was carried out using a scale from 0 to 100. 100 means no emergence of the plants, or complete destruction of at least the aerial moieties, and 0 means no damage, or normal course of growth. A moderate herbicidal activity is given at values of at least 60, a good herbicidal activity is given at values of at least 70, and a very good herbicidal activity is given at values of at least 85. […] [table]

AMARE [3] = test: Greenhouse experiment, pre-emergence treatment; assay type: in vivo, Amaranthus retroflexus; conditions: pre-emergence method; for herbicidal activity against AMARA: application rate 125 g/ha
Source text: as §7

APESV = test: Greenhouse experiment, pre-emergence treatment; assay type: in vivo, Apera spica-venti; conditions: pre-emergence method
Source text: as §1, §2, §3, §4, §5, §6

AMARE [4] = test: Greenhouse experiment, post-emergence treatment; assay type: in vivo, Amaranthus retroflexus; conditions: post-emergence method, application rate 125 g/ha
Experimental: (§8) The seeds of the test plants were sown separately for each species. […] For this purpose, the test plants were either sown directly and grown in the same containers, or they were first grown separately as seedlings and transplanted into the test containers a few days prior to treatment. Depending on the species, the plants were kept at 10-25° C. or 20-35° C., respectively. The test period extended over 2 to 4 weeks. During this time, the plants were tended, and their response to the individual treatments was evaluated. Evaluation was carried out using a scale from 0 to 100. 100 means no emergence of the plants, or complete destruction of at least the aerial moieties, and 0 means no damage, or normal course of growth. A moderate herbicidal activity is given at values of at least 60, a good herbicidal activity is given at values of at least 70, and a very good herbicidal activity is given at values of at least 85. […] [table]

ABUTH [5] = test: Greenhouse experiment, post-emergence treatment; assay type: in vivo, Abutilon theophrasti; conditions: post-emergence method, application rate 125 g/ha
Experimental: as §8

SETFA [6] = test: Greenhouse experiment, post-emergence treatment; assay type: in vivo, Setaria faberi; conditions: post-emergence method, application rate 125 g/ha
Experimental: as §8

Compound: Cc1cc(C)cc(Sc2cccc(F)c2Nc2nc(N)nc(C(C)(C)F)n2)c1 [Example 2]
- herbicidal activity against ABUTH (ABUTH [1]; application rate 1000 g/ha): good (a good herbicidal activity is given at values of at least 70)

Compound: Cc1cc(C)cc(Oc2cccc(F)c2Nc2nc(N)nc(C(C)(C)F)n2)c1 [Example 5]
- herbicidal activity against ECHCG (ECHCG; application rate 0.25 kg/ha): very good (a very good herbicidal activity is given at values of at least 85)
- herbicidal activity against SETFA (SETFA [2]; application rate 0.25 kg/ha): very good (a very good herbicidal activity is given at values of at least 85)
- herbicidal activity against ABUTH (ABUTH [1]; application rate 0.25 kg/ha): very good (a very good herbicidal activity is given at values of at least 85)

Compound: Cc1cccc(Oc2cccc(F)c2Nc2nc(N)nc(C(C)(C)F)n2)c1 [Example 7]
- herbicidal activity against ECHCG (ECHCG; application rate 0.5 kg/ha): good to very good
- herbicidal activity against AMARE (AMARE [3]; application rate 0.5 kg/ha): good to very good
- herbicidal activity against ABUTH (ABUTH [1]; application rate 0.5 kg/ha): good to very good

Compound: Cc1cc(C)cc(Oc2cccc(F)c2Nc2nc(N)nc(C(C)F)n2)c1 (stereo not shown) [Example 11]
- herbicidal activity against ECHCG (ECHCG; application rate 0.125 kg/ha): very good (a very good herbicidal activity is given at values of at least 85)
- herbicidal activity against SETFA (SETFA [2]; application rate 0.125 kg/ha): very good (a very good herbicidal activity is given at values of at least 85)
- herbicidal activity against ABUTH (ABUTH [1]; application rate 0.125 kg/ha): very good (a very good herbicidal activity is given at values of at least 85)

Compound: CC(C)(F)c1nc(N)nc(Nc2c(F)cccc2Oc2cc(C(F)(F)F)cc(C(F)(F)F)c2)n1 [Example 12]
- herbicidal activity against APESV (APESV; application rate 0.25 kg/ha): very good (a very good herbicidal activity is given at values of at least 85)
- herbicidal activity against AMARE (AMARE [3]; application rate 0.25 kg/ha): very good (a very good herbicidal activity is given at values of at least 85)
- herbicidal activity against SETFA (SETFA [2]; application rate 0.25 kg/ha): very good (a very good herbicidal activity is given at values of at least 85)

Compound: CC(C)(F)c1nc(N)nc(Nc2c(F)cccc2Oc2cc(Cl)cc(Cl)c2)n1 [Example 13]
- herbicidal activity against APESV (APESV; application rate 0.25 kg/ha): very good (a very good herbicidal activity is given at values of at least 85)
- herbicidal activity against AMARE (AMARE [3]; application rate 0.25 kg/ha): very good (a very good herbicidal activity is given at values of at least 85)
- herbicidal activity against SETFA (SETFA [2]; application rate 0.25 kg/ha): very good (a very good herbicidal activity is given at values of at least 85)

Compound: Cc1cc(C)cc(Oc2cccc(F)c2Nc2nc(N)nc(C3CCCCC3)n2)c1 [Example 15]
- herbicidal activity against ABUTH (ABUTH [1]; application rate 1000 g/ha): very good (a very good herbicidal activity is given at values of at least 85)

Compound: Cc1cc(C)cc(Oc2cccc(F)c2Nc2nc(N)nc(C(C)(C)C)n2)c1 [Example 16]
- herbicidal activity against APESV (APESV; application rate 2000 g/ha): very good (a very good herbicidal activity is given at values of at least 85)
- herbicidal activity against AMARE (AMARE [3]; application rate 2000 g/ha): very good (a very good herbicidal activity is given at values of at least 85)
- herbicidal activity against ABUTH (ABUTH [1]; application rate 2000 g/ha): very good (a very good herbicidal activity is given at values of at least 85)

Compound: CC(C)(F)c1nc(N)nc(Nc2c(F)cccc2Oc2cc(F)cc(F)c2)n1 [Example 24]
- herbicidal activity against ECHCG (ECHCG; application rate 0.25 kg/ha): very good (a very good herbicidal activity is given at values of at least 85)
- herbicidal activity against APESV (APESV; application rate 0.25 kg/ha): very good (a very good herbicidal activity is given at values of at least 85)
- herbicidal activity against ABUTH (ABUTH [1]; application rate 0.25 kg/ha): very good (a very good herbicidal activity is given at values of at least 85)

Compound: Cc1cc(Cl)cc(Oc2cccc(F)c2Nc2nc(N)nc(C(C)(C)F)n2)c1 [Example 28]
- herbicidal activity against APESV (APESV; application rate 0.25 kg/ha): very good (a very good herbicidal activity is given at values of at least 85)
- herbicidal activity against SETFA (SETFA [2]; application rate 0.25 kg/ha): very good (a very good herbicidal activity is given at values of at least 85)
- herbicidal activity against ABUTH (ABUTH [1]; application rate 0.25 kg/ha): very good (a very good herbicidal activity is given at values of at least 85)

Compound: COC(C)c1nc(N)nc(Nc2c(F)cccc2Oc2cc(C)cc(C)c2)n1 (stereo not shown) [Example 39]
- herbicidal activity against APESV (APESV; application rate 1000 g/ha): very good (a very good herbicidal activity is given at values of at least 85)
- herbicidal activity against ABUTH (ABUTH [1]; application rate 1000 g/ha): very good (a very good herbicidal activity is given at values of at least 85)

Compound: CC(C)(F)c1nc(N)nc(Nc2c(F)c(F)cc(Oc3ccccc3)c2F)n1 [Example 42]
- herbicidal activity against ECHCG (ECHCG; application rate 0.5 kg/ha): good to very good
- herbicidal activity against AMARE (AMARE [3]; application rate 0.5 kg/ha): good to very good
- herbicidal activity against ABUTH (ABUTH [1]; application rate 0.5 kg/ha): good to very good

Compound: Cc1cc(C)cc(Oc2cc(F)c(F)c(Nc3nc(N)nc(C(C)(C)F)n3)c2F)c1 [Example 43]
- herbicidal activity against AMARE (AMARE [3]; application rate 0.5 kg/ha): good to very good
- herbicidal activity against SETFA (SETFA [2]; application rate 0.5 kg/ha): good to very good
- herbicidal activity against ABUTH (ABUTH [1]; application rate 0.5 kg/ha): good to very good

Compound: CC(C)(F)c1nc(N)nc(Nc2c(F)cccc2Oc2cc(F)cc(C(F)(F)F)c2)n1 [Example 53]
- herbicidal activity against AMARE (AMARE [4]): very good (a very good herbicidal activity is given at values of at least 85)
- herbicidal activity against ABUTH (ABUTH [5]): very good (a very good herbicidal activity is given at values of at least 85)
- herbicidal activity against SETFA (SETFA [6]): very good (a very good herbicidal activity is given at values of at least 85)

Compound: CC(C)(F)c1nc(N)nc(Nc2c(F)cccc2Oc2cc(F)cc(Cl)c2)n1 [Example 54]
- herbicidal activity against AMARE (AMARE [4]): very good (a very good herbicidal activity is given at values of at least 85)
- herbicidal activity against ABUTH (ABUTH [5]): very good (a very good herbicidal activity is given at values of at least 85)
- herbicidal activity against SETFA (SETFA [6]): very good (a very good herbicidal activity is given at values of at least 85)

Compound: Cc1cc(OCC(F)(F)F)cc(Oc2cccc(F)c2Nc2nc(N)nc(C(C)(C)F)n2)c1 [Example 81]
- herbicidal activity against AMARA (AMARE [3]): very good (a very good herbicidal activity is given at values of at least 85)
- herbicidal activity against SETFA (SETFA [2]; application rate 125 g/ha): very good (a very good herbicidal activity is given at values of at least 85)
- herbicidal activity against ABUTH (ABUTH [1]; application rate 125 g/ha): good (a good herbicidal activity is given at values of at least 70)

Compound: CC(C)(F)c1nc(N)nc(Nc2c(F)cccc2Oc2cc(F)cc(OC(F)F)c2)n1 [Example 82]
- herbicidal activity against AMARA (AMARE [3]): very good (a very good herbicidal activity is given at values of at least 85)
- herbicidal activity against SETFA (SETFA [2]; application rate 125 g/ha): very good (a very good herbicidal activity is given at values of at least 85)
- herbicidal activity against ABUTH (ABUTH [1]; application rate 125 g/ha): very good (a very good herbicidal activity is given at values of at least 85)

Compound: CC(C)c1cccc(Oc2cccc(F)c2Nc2nc(N)nc(C(C)(C)F)n2)c1 [Example 89]
- herbicidal activity against ECHCG (ECHCG; application rate 500 g/ha): very good (a very good herbicidal activity is given at values of at least 85)
- herbicidal activity against APESV (APESV; application rate 500 g/ha): very good (a very good herbicidal activity is given at values of at least 85)
- herbicidal activity against ABUTH (ABUTH [1]; application rate 500 g/ha): very good (a very good herbicidal activity is given at values of at least 85)

Compound: Cc1cc(C)cc(Oc2cccc(F)c2Nc2nc(N)nc(C3(F)CCCC3)n2)c1 [Example 96]
- herbicidal activity against ECHCG (ECHCG; application rate 500 g/ha): very good (a very good herbicidal activity is given at values of at least 85)
- herbicidal activity against SETFA (SETFA [2]; application rate 500 g/ha): very good (a very good herbicidal activity is given at values of at least 85)
- herbicidal activity against ABUTH (ABUTH [1]; application rate 500 g/ha): very good (a very good herbicidal activity is given at values of at least 85)

Compound: CC(C)(F)c1nc(N)nc(Nc2c(F)cccc2Oc2cccc(OC(F)(F)F)c2)n1 [Example 97]
- herbicidal activity against ECHCG (ECHCG; application rate 500 g/ha): very good (a very good herbicidal activity is given at values of at least 85)
- herbicidal activity against SETFA (SETFA [2]; application rate 500 g/ha): very good (a very good herbicidal activity is given at values of at least 85)
- herbicidal activity against ABUTH (ABUTH [1]; application rate 500 g/ha): very good (a very good herbicidal activity is given at values of at least 85)

Compound: Cc1cc(C)cc(Oc2cccc(C#N)c2Nc2nc(N)nc(C(C)(C)F)n2)c1 [Example 100]
- herbicidal activity against ECHCG (ECHCG; application rate 250 g/ha): very good (a very good herbicidal activity is given at values of at least 85)
- herbicidal activity against APESV (APESV; application rate 250 g/ha): very good (a very good herbicidal activity is given at values of at least 85)
- herbicidal activity against ABUTH (ABUTH [1]; application rate 250 g/ha): good (a good herbicidal activity is given at values of at least 70)
